# Test results published in patent US9149424B2, “Compositions and methods for reducing hepatotoxicity associated with drug administration” (YALE UNIVERSITY, priority 2007, dated 2015).
# “Also recorded” adds a separate entry of the source.
# Legend:
# wild-type mice [1] = assay: Acetaminophen (APAP) induced hepatotoxicity, survival over 72 hours; format: in vivo, mouse
# Protocol: C57BL/6 mice were purchased from commercial sources. […] These mice have been described previously (39, 40). IL-1β was neutralized in by using the anti-IL-1β antibody from clone B122 (a gift of R. Schreiber, Washington University) at a dose of 0.2 mg/mouse iv twice a day for a total of 48 hours after giving APAP. Control mice received Armenian hamster isotype control antibody. For survival experiments animals were euthanized when they became moribund using criteria of lack of response to stimuli or lack of righting reflex. Animal protocols were approved by the Yale University animal care and use committee. [include references for IPAF−/− (M. Lara-Tejero et al. JEM 2006) and IL-18−/−. Need to add TLR9−/− and TLR3−/−]
# (§1) APAP (Sigma, Mo.) solution was made fresh for each experiment in PBS at 20 mg/ml and heated in a water bath to 55° C. to dissolve. APAP was dosed at 500 mg/kg and injected I.P after 15 hrs of starvation. Animals were euthanized by ketamine/xylazine injection at 12 hours for collection of serum, isolation of liver lymphocytes or collection of liver tissue for histology, or they were observed every four hours for 72 hours until they reached criteria for euthanasia (lack of response to stimuli or lack of righting reflex).
# (§2) Aspirin (Sigma, Mo.) was made fresh for each experiment. For dosing prior to APAP it was dissolved in single deionized water at 60 mg/l and heated to 42° C. with rapid stirring to dissolve, then rapidly placed in an ice water bath to cool. Aspirin in water was given to the mice 60-72 hours prior to APAP injection. Assuming water consumption of 3-5 ml per day this dose would be equivalent to a 300-500 mg dose in an 80 kg adult human. For co-administration of APAP and aspirin, aspirin was gavaged at a dose of 6 mg/kg in a volume of 100 ul of water immediately after ip injection of APAP. Clopidogrel (Gilead Pharmaceuticals, CA.) was dissolved in PBS at 6 mg/ml and administered by gavage of 100 ul, 30 mg/kg, every 24 hours beginning 48 hours prior and ending 24 hours after APAP injection. Cox-1 inhibitor (SC-560). SC-560 (Cayman chemical, MI) was dissolved at 50 mg/ml in DMSO and further dissolved in PBS in order to gavage a dose of 5 mg/kg in 100 ul.
# mice and rats = conditions: aspirin 200-600 mg/kg (dose range toxic to humans); cited from earlier work
# wild-type mice [2] = assay: APAP induced hepatotoxicity, serum ALT at 12 hours; format: in vivo, mouse; conditions: aspirin pre-treatment in drinking water; 12 hrs after APAP; P<0.04
# Protocol: as §1
# Aspirin (Sigma, Mo.) was made fresh for each experiment. For dosing prior to APAP it was dissolved in single deionized water at 60 mg/l and heated to 42° C. with rapid stirring to dissolve, then rapidly placed in an ice water bath to cool. Aspirin in water was given to the mice 60-72 hours prior to APAP injection. Assuming water consumption of 3-5 ml per day this dose would be equivalent to a 300-500 mg dose in an 80 kg adult human. For co-administration of APAP and aspirin, aspirin was gavaged at a dose of 6 mg/kg in a volume of 100 ul of water immediately after ip injection of APAP. […]
# (§3) TLR9 antagonist (ODN2088, 50 microg×2) or PBS, were injected ip into wild-type mice immediately after and at 6 hours after APAP injection and total mouse liver was obtained 12 hours after APAP injection for quantitative Q-PCR for IL-1β. […]
# IFN-γ = assay: Quantitative real-time PCR of total liver 12 hours after APAP, IFN-γ; format: in vivo, mouse; conditions: aspirin pre-treatment
# Protocol: as §1
# (§4) Q-PCR was performed for IL-1β and IL-18 using commercial primer-probe sets (Applied Biosystems, Framingham, Mass.) and the Applied Biosystem 7500 real-time PCR system. Expression of glyceraldehyde 3-phosphate dehydrogenase was used to standardize the samples, and the results were expressed as a ratio compared with untreated HSCs. Quantitative Real-time PCR for mRNA expression of IL-18, IL-1β, TNF-α and IFN-γ. Total mouse liver was obtained 12 hours after APAP and cDNA was prepared. Quantitative real-time PCR (Q-PCR) was performed for IL-18 and IL-1β using commercial primer-probe sets (Applied Biosystems, Calif.) and the Applied Biosystem 7500 real time PCR system. Expression of GAPDH was used to standardize the samples, and the results were expressed as a ratio compared to control.
# TNF-α = assay: Quantitative real-time PCR of total liver 12 hours after APAP, TNF-α; format: in vivo, mouse; conditions: aspirin pre-treatment
# Protocol: as §1, §4
# wild-type mice [3] = assay: APAP induced hepatotoxicity, liver histology (H&E) at 12 hours; format: in vivo, mouse; conditions: aspirin 60 mg/l in drinking water three days before APAP; 12 hours after APAP
# Protocol: as §1
# as §2, with “SC-560 (Cayman chemical, MI) was dissolved at 50 mg/ml in DMSO and further dissolved in PBS in order to gavage a dose of 5 mg/kg in 100 ul.” left out
# NALP3 inflammasome = assay: Uric acid (MSU crystal) peritonitis, Gr-1 positive neutrophils in peritoneal lavage; format: in vivo, mouse; conditions: low dose aspirin (60 mg/l) in drinking water for three days before MSU 3 mg ip; lavage at 3 hours
# Protocol: Peritonitis was induced with uric acid crystals as previously described by injecting 3 mg of MSU intraperitoneally per mouse (27). Three hours after injection peritoneal lavage was performed on mice euthanized by isoflurane inhalation. Neutrophil infiltration was evaluated by flow cytometry. The percent of Gr-1 (BD Pharmingen, CA) positive cells was multiplied by the total cell counts.
# pro-IL-18 transcript = assay: Quantitative real-time PCR of total liver 12 hours after APAP, pro-IL-18; format: in vivo, mouse; conditions: aspirin pre-treatment in drinking water
# Protocol: as §1, §4
# pro-IL-1β transcript = assay: Quantitative real-time PCR of total liver 12 hours after APAP, pro-IL-1β; format: in vivo, mouse; conditions: aspirin pre-treatment in drinking water
# Protocol: as §1, §3
# as §4, with “Total mouse liver was obtained 12 hours after APAP and cDNA was prepared.” left out, “Expression of GAPDH was used to standardize the samples, and the results were expressed as a ratio compared to control.” left out
# [4] = test system: pro-IL-1β transcript in THP1 cells; assay: THP1 cells stimulated with LPS, real-time PCR pro-IL-1β; format: cell-based, human; conditions: THP1 cells incubated overnight with aspirin (1.5 mM, 0.15 mM), then LPS 10 μg/ml 8 hours
# Protocol: The human monocytic cell line THP1 was maintained in RPMI with 10% FBS. Stimulation with LPS (Sigma, Mo.) was performed by plating cells at 5×10^5 per 24 well, incubating overnight with aspirin or control media prior to adding LPS at 10 μg/ml for 8 hours.
# IL-1β = assay: ELISA for serum IL-1β after APAP; format: in vivo, mouse; conditions: APAP with vs without ASA in drinking water; p<0.02
# Protocol: ELISA for serum IL1-β was carried out by standard protocols.
smiles,measurement,setting,value
COc1ccc(-n2nc(C(F)(F)F)cc2-c2ccc(Cl)cc2)cc1 [SC-560],protection against APAP toxicity (survival),"wild-type mice [1]; SC-560 5 mg/kg gavage twice daily from 60 hours before to 48 hours after APAP, n=10 each, P<0.97",did not protect
"CC(=O)Oc1ccccc1C(=O)O [aspirin, acetylsalicylic acid]",liver injury from APAP,mice and rats,reduce liver injury
same,survival from APAP,mice and rats,not improve survival
same,serum ALT,wild-type mice [2],significantly lower
same,"expression of IFN-γ, whole liver",IFN-γ,reduced
same,"expression of TNF-α, whole liver",TNF-α,reduced
same,liver histology (liver injury and hemorrhage),wild-type mice [3],significant reduction in APAP induced liver injury and hemorrhage; also recorded: markedly improved
same,neutrophil exudates in MSU peritonitis,NALP3 inflammasome,eightfold reduction
same,"increase in pro-IL-18 message by APAP, whole liver",pro-IL-18 transcript,reduced to normal levels
same,survival after APAP,"wild-type mice [1]; aspirin 60 mg/l in drinking water 3 days before APAP 500 mg/kg ip, control n=13, aspirin n=17, P<0.02",markedly improved survival
same,survival,"wild-type mice [1]; aspirin given concordantly with APAP, 6 mg/kg gavage, control 22%+/−19%, P<0.04",43%+/−11%
same,"increase in pro-IL-1β message by APAP, whole liver",pro-IL-1β transcript,reduced to normal levels
same,LPS induced up-regulation of pro-IL-1β transcript,[4],reduced
same,serum IL-1β levels,IL-1β,significant reduction
COC(=O)[C@H](c1ccccc1Cl)N1CCc2sccc2C1 [clopidogrel],protection against APAP toxicity (survival),"wild-type mice [1]; clopidogrel 30 mg/kg gavage every 24 hrs from 48 hours before to 24 hours after APAP, n=15 each, P<0.31",did not protect
